Experimental data taken from PMC5933457, “Probing biological activity through structural modelling of ligand-receptor interactions of 2,4-disubstituted thiazole retinoids” (Bioorganic & Medicinal Chemistry, 2018).
Where two headings read alike, the source gives them in different places.

Key:
[1] = biological target: T1, RARα ligand-binding domain (GST-RAR-α-LBD) (Homo sapiens, UniProt P10276); test: LanthaScreen TR-FRET RARα co-activator (receptor binding) assay; format: biochemical; conditions: for EC50: read-out: EC50 (95% confidence range) RARα; for binding-curve upper asymptote (coactivator recruitment), RARα: in words, Fig. 6A
T1 construct: purchased Invitrogen
T1 sequence (P10276 183-417 limits assumed): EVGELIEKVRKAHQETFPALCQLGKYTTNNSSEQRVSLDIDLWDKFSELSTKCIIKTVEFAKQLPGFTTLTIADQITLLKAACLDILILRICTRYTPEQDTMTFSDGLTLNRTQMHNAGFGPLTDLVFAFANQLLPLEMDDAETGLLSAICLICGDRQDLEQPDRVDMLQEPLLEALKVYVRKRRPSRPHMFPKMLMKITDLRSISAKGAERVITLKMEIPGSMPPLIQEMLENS
Procedure: These predictions were tested through a receptor-binding assay for each RAR isotype (Fig. 6), where the assay signal is dependent on two parameters: the binding affinity of ligand to the RAR LBD, and the affinity of the coactivator for the ligand-LBD complex. For this assay, binding curves and variation in level of the upper asymptote can reflect differences in co-activator affinity for the ligand-LBD complex; variation in affinity of ligand for LBD shifts the midpoint (EC50) of the binding curve, whereas changes in the level of the upper asymptote may result from changes in coactivator affinity for the ligand-LBD complex alone, or in combination with changes in affinity for ligand with LBD.[23]
The binding interaction of each retinoid with RARα, β and γ were determined in vitro by time-resolved fluorescence resonance energy transfer (TR-FRET) using the LanthaScreen TR-FRET RARα, RARβ, and RARγ co-activator assays according to the manufacturer’s (Invitrogen™) instructions.[23] This uses a terbium-labeled anti-GST antibody, a fluorescein-labeled co activator peptide, and RARα/β/γ ligand-binding domains (LBD) that are tagged with glutathione-S-transferase (GST) in a homogenous assay format. All experiments were performed in black, 384-well low-volume plates in the dark at RT with a 4 h incubation time. The final assay volume was 20 μL and all dilutions were carried out using TR-FRET assay buffer, with a final DMSO concentration of 1%. A mixture of either 3.5 nM GST-RAR-α-LBD or 2.5 nM GST-RAR-β-LBD or 3 nM GST-RAR-γ-LBD with 62.5 nM Tb-anti GST antibody and 30 μM fluorescein-labeled peptide and retinoid or DMSO control was added to each of the wells. Each ligand assay was performed in duplicate and measured using a PHERAstar FS Microplate Reader (BMG Labtech, Ortenberg, Germany) with instrument settings as described in the manufacturer’s instructions for LanthaScreen assays. The TR-FRET signal was expressed as the ratio of the signals at 520 nm and 490 nm. The data were fitted to a three-parameter ligand-binding curve using SigmaPlot (version 12.5, Systat Software Inc., San Jose CA) and normalized to the lower asymptote of each binding curve. […] Since the assay involves interactions between ligand and LBD, and ligand-dependent interactions between the LBD and fluorescein-labeled co activator, the binding assay data were interpreted by simulating these coupled chemical reactions using the biochemical simulator COPASI version 4.3.[23], [54]
The readout of the Lanthascreen TR-FRET binding assay is based on a Forster resonance energy transfer (FRET) signal generated from the interaction between a terbium-labelled anti-glutathione-S-transferase (GST) antibody and a fluorescein-labelled coactivator peptide. The RAR ligand-binding domain (LBD) is a GST fusion protein and interaction between the LBD and the fluorescein-labelled coactivator peptide is driven by the binding of ligand to the LBD, and detected by the FRET signal from the terbium/fluorescein interaction when the terbium-labelled anti-GST binds the LBD fusion protein. The output of the assay thus relies on two binding interactions: ligand with LBD, and ligand-bound LBD with the coactivator peptide. As both interactions may be affected by the fit of ligand to the binding pocket of the LBD, we used the biochemical pathway simulator COPASI^1 to build a simple model of how the FRET signal output in the assay will vary according to differential changes in the kinetics of the two binding interactions. Reactions were modelled deterministically using mass-action kinetics described by ordinary differential equations (ODE) within COPASI.^1 This model enables us to assess the effect of different rate constants and varying ligand concentration on the formation of the final ternary complex that is the read-out from the Lanthascreen TR-FRET assay.

[2] = tested on: TERA2.cl.SP12 cells; test: Immunocytochemistry for A2B5, TUJ-1 and cytokeratin 8; format: cell-based, human; conditions: for expression of epithelial phenotype marker cytokeratin 8: 10 μM, 1, 2 and 3 weeks, Fig. 7D; for neuronal differentiation by TUJ-1 staining: up to 3 weeks
Procedure: Third, we carried out assessment of protein expression using immunofluorescent techniques on cultures of TERA2.cl.SP12 cells treated with retinoids.
TERA2.cl.SP12 cells were seeded at 5000 cells per well on poly-D-lysine (25 μg/ml) coated cover slips in 6-well plates. Cells were treated with each retinoid at a concentration of 10 μM for 7, 14 and 21 days (the media was changed every 3–4 days). Cells were also treated with 1% DMSO for the same time periods as a […] control. At the end of the treatment period, cells were fixed (4% para-formaldehyde in PBS for 30 min at room temperature (RT) and rinsed with PBS. One set of experiments was used for the cell surface marker A2B5 (diluted 1:100, R&D systems), and the other set was prepared for intracellular staining using 1% Triton-X-100 (Sigma Aldrich) in PBS as a permeabilizing agent for 10 min at RT. Non-specific labeling was blocked by incubation with a solution of 1% goat serum (Sigma Aldrich) containing 0.2% Tween-20 (Sigma Aldrich) in PBS for one hour at RT. The primary antibodies β-III tubulin antibody (TUJ-1) (1:200, Affymetrix eBioscience) and CK-8 antibody (1:500, Affymetrix eBioscience) were diluted in blocking solution and incubated with the cells for 1 h at RT. After washing three times for 15 min with PBS, cells were incubated for 1 h in the dark with anti-mouse FITC-conjugated secondary antibody IgM (1:128, Sigma Aldrich) for A2B5 staining, and anti-mouse Alexafluor 488 IgG (1:600, Invitrogen) for TUJ-1 and CK-8 staining. Hoechst 33,342 nuclear staining dye (1:1000, Molecular Probes) was dissolved in blocking solution after the secondary antibody staining step for nuclear staining.
Immunocytofluorescent images of fixed cells were visualized using a Leica SP5 confocal microscope. Scale bars are shown at 25 μm.

[3] = estimated EC50, TR-FRET co-activator assay, 4 h incubation

Structure (SMILES) | EC50 [1, 3] | binding-curve upper asymptote (coactivator recruitment), RARα [1] | expression of epithelial phenotype marker cytokeratin 8 [2] | neuronal differentiation by TUJ-1 staining ([2]; 10 μM, Fig. 7C) | EC50 [1] | expression of neuronal differentiation marker A2B5 (immunofluorescence) ([2]; 10 μM, after 7 days, Fig. 7C)
CCOC(=O)c1ccc(-c2nc(-c3ccccc3)c(C)s2)cc1 [GZ22] | 82 nM | lower asymptotes | more effective | very low activity | – | –
CCOCCOc1nc(-c2ccc(C(=O)O)cc2)sc1C [GZ18] | 15.1 nM | high curve asymptotes | more effective | very low activity | – | –
Cc1sc(-c2ccc(C(=O)O)cc2)nc1-c1ccc2c(c1)C(C)(C)CCC2(C)C [GZ25] | – | high curve asymptotes | not detectable | most effective | 8.2 nM | induced
